Values quoted from earlier work as cited in patent publication US12070444B2, “Modulation of molecular markers using S-equol” (Board of Regents, The University of Texas System, priority 2020, dated 2024).
Where two headings read alike, the source gives them in different places.

What was measured:
[1] = test system: Ki67 expression; settings: IMPACT trial; cited from earlier work
[2] = test system: tumor resistance to ICB immunotherapy; settings: recent report (Huang, 2020); cited from earlier work
[3] = test system: TNBC; settings: cited from earlier work

In the case of CC(C)(C#N)c1cc(Cn2cncn2)cc(C(C)(C)C#N)c1 [anastrazole], the “change in the geometric mean of Ki67 expression after two weeks” value [1] is given as −76%.
For CC/C(=C(\c1ccccc1)c1ccc(OCCN(C)C)cc1)c1ccccc1 [tamoxifen], the “change in the geometric mean of Ki67 expression after two weeks” value [1] is listed as −59.5%.
For Oc1ccc([C@@H]2Oc3ccc(O)cc3[C@@H]3CCC[C@@H]32)cc1 [LY500307], the “effect on tumor resistance to ICB immunotherapy” value [2] is listed as “overcoming tumor resistance to ICB immunotherapy”.
In the case of pembrolizumab, the response rate ([3]; Phase 1 study, 27 women, heavily pretreated chemotherapy resistant metastatic TNBC expressing PD-L1 (Nanda et al. 2016)) is given as 18.4%.
In the case of atezolizumab, the response rate ([3]; 21 evaluable, PD-L1 expressing TNBC tumors (Emens et al. 2015)) is given as 19%.
In the case of avelumab, the response rate ([3]; 168 TNBC tumors unselected for PD-L1 expression (Dirix et al. 2015)) is listed as 8.6%.
